Experimental findings from patent US10940144B2, “Drug containing pyridylaminoacetic acid compound” (priority 2017, dated 2021) are described below.

One test has as its system retinal blood vessels. In words: Pharmacological Test 1: retinal vasodilatory action (retinal vascular diameter from fundus images) after intravitreal administration to rabbits. It counts as in vivo, rabbit. The conditions noted are these: for Base-Corrected Retinal Vascular Diameter Change Rate (%) 1 Hour After Administration / Base-Corrected Retinal Vascular Diameter Change Rate (%) 2 Hours After Administration / Base-Corrected Retinal Vascular Diameter Change Rate (%) 6 Hours After Administration / Base-Corrected Retinal Vascular Diameter Change Rate (%) 24 Hours After Administration: 20 μL intravitreal single injection, pigmented rabbits. As for the experimental part:
In order to find a new medicinal use of omidenepag, an ester thereof, or a salt thereof, the retinal vasodilatory action in the case of administering omidenepag to rabbits was examined. Omidenepag at 4.01 mg was dissolved in dimethyl sulfoxide to a total volume of 129 μL. Of the total volume, 10 μL was added and dissolved into physiological saline, and an appropriate amount of sodium hydroxide solution was added to adjust the pH of the formulation to 6.2. Thereafter, physiological saline was further added to a total volume of 10 mL to obtain omidenepag sample 1 (containing 0.00311% (w/v) (31.1 μg/mL) of omidenepag). In addition, the base A was added to 0.1 mL of omidenepag sample 1 to a total volume of 10 mL, and omidenepag sample 2 was obtained (containing 0.0000311% (w/v) (0.311 μg/mL) of omidenepag). CP-544326 (EP2 agonist) at 5.98 mg was dissolved in dimethyl sulfoxide to a total volume of 192 μL. Of the total volume, 10 μL was added and dissolved into physiological saline, and sodium hydroxide solution was added to adjust the pH of the formulation to 6.5. Thereafter, physiological saline was further added to a total volume of 10 mL to obtain CP-544326 sample 1 (containing 0.00311% (w/v) (31.1 μg/mL) of CP-544326). In addition, the base A was added to 0.1 mL of CP-544326 sample 1 to a total volume of 10 mL, and CP-544326 sample 2 was obtained (containing 0.0000311% (w/v) (0.311 μg/mL) of CP-544326). The base A, omidenepag samples 1 and 2, and CP-544326 samples 1 and 2 as test compound solutions, each at 20 μL, were administered intravitreally (injection, single time) to examine the change in retinal vascular diameter. In addition, pigmented rabbits (strain: Dutch, sex: male, three animals per group) were used as experimental animals. 1) After holding the above experimental animals, one drop (about 0.03 mL) of a 0.4% tropicamide ophthalmic solution (trade name: Mydrin-M ophthalmic solution 0.4%) was instilled into the retinal vascular diameter measurement eye to fully dilate the pupil. Thereafter, fundus images of the measurement eyes were captured, and the retinal vascular diameters and the like immediately before administration were measured from the obtained fundus images. 2) One drop (about 0.03 mL) of a 0.4% oxybuprocaine hydrochloride ophthalmic solution (trade name: Benoxil ophthalmic solution 0.4%) was instilled into the retinal vascular diameter measurement eye of each experimental animal for local anesthesia. Thereafter, a microsyringe connected with a 30 G injection needle was used to administer 20 μL of each test compound solution into the vitreous body. 3) At 1 hour, 2 hours, 6 hours, and 24 hours after administration of each test compound solution, fundus images of the retinal vascular diameter measuring eyes were captured, and the retinal vascular diameters and the like were measured from the obtained fundus images. (a) The fundus images captured immediately before the administration, 1 hour, 2 hours, 6 hours, and 24 hours after the administration were used to measure, as the vascular diameters, (i) the vascular diameter of the retinal artery on the nose side, (ii) the vascular diameter of the retinal artery on the ear side, and (iii) the optic nerve head diameter (longitudinal diameter passing through the center of the optic nerve head). (b) The average value of (i) the vascular diameter of the retinal artery on the nose side and (ii) the vascular diameter of the retinal artery on the ear side measured from the fundus images for each time period was divided by (iii) the optic nerve head diameter to calculate the corrected retinal vascular diameter. […]

In test [1] the test system is optic nerve head tissue blood flow. In words: Pharmacological Test 3: optic nerve head tissue blood flow (laser speckle flowgraphy) after intravitreal administration to rabbits. It counts as in vivo, rabbit. As for the experimental part:
In order to find anew medicinal use of omidenepag, an ester thereof, or a salt thereof, the action of increasing tissue blood flow in the optic nerve head in the case of administering omidenepag to rabbits was examined.
Omidenepag at 3.99 to 4.03 mg was dissolved in dimethyl sulfoxide to a total volume of 128 to 130 μL. Of the total volume, 10 μL was added and dissolved into physiological saline, and an appropriate amount of sodium hydroxide solution was added to adjust the pH of the formulation to 6.3 to 7.2. Thereafter, physiological saline was further added to a total volume of 10 mL to obtain omidenepag sample 3 (containing 0.00311% (w/v) (31.1 μg/mL) of omidenepag).
The base C and omidenepag sample 3 as test compound solutions, each at 20 μL, were administered intravitreally (injection, single time) to examine the change in optic nerve head tissue blood flow. In addition, pigmented rabbits (strain: Dutch, sex: male, three animals per group) were used as experimental animals. […]
3) At 1 hour and 2 hours after administration of each test compound solution, the optic nerve head tissue blood flow of the optic nerve head tissue blood flow measurement eye was measured.
(a) The ratio of the optic nerve head tissue blood flow after passage of each of the time periods of 1 hour and 2 hours after administration to the optic nerve head tissue blood flow immediately before administration (optic nerve head tissue blood flow change rate (%)) was calculated. […]
(b) For each time period after administration, the difference (base-corrected optic nerve head tissue blood flow change rate (%)) was calculated between the optic nerve head tissue blood flow change rate (%) of the group administered with the base C simultaneously carried out and the optic nerve head tissue blood flow change rate (%) of the group administered with omidenepag sample 3. […]

Molecules are shown by their SMILES.

On to `O=C(O)COc1cccc(CN(Cc2ccc(-n3cccn3)cc2)S(=O)(=O)c2cccnc2)c1` [CP-544326, reference compound], for which, in the test with retinal blood vessels (0.0000311% (w/v) (0.311 μg/mL)), the “Base-Corrected Retinal Vascular Diameter Change Rate (%) 1 Hour After Administration” value turned out to be 14.8%, the “Base-Corrected Retinal Vascular Diameter Change Rate (%) 2 Hours After Administration” value amounted to 9.0%, the “Base-Corrected Retinal Vascular Diameter Change Rate (%) 6 Hours After Administration” value is on record as 0.8% and the “Base-Corrected Retinal Vascular Diameter Change Rate (%) 24 Hours After Administration” value is 3.5%. Moreover, in the test with retinal blood vessels (0.00311% (w/v) (31.1 μg/mL)), the “Base-Corrected Retinal Vascular Diameter Change Rate (%) 1 Hour After Administration” value turned out to be 48.4%, the “Base-Corrected Retinal Vascular Diameter Change Rate (%) 2 Hours After Administration” value turned out to be 57.5%, the “Base-Corrected Retinal Vascular Diameter Change Rate (%) 6 Hours After Administration” value was 72.2% and the “Base-Corrected Retinal Vascular Diameter Change Rate (%) 24 Hours After Administration” value amounted to 3.7%.
Regarding `O=C(O)CNc1cccc(CN(Cc2ccc(-n3cccn3)cc2)S(=O)(=O)c2cccnc2)n1` [Omidenepag, (6-{[4-(pyrazol-1-yl)benzyl](pyridin-3-ylsulfonyl)aminomethyl}pyridin-2-ylamino)acetic acid], in the test on retinal blood vessels (0.0000311% (w/v) (0.311 μg/mL)), the “Base-Corrected Retinal Vascular Diameter Change Rate (%) 1 Hour After Administration” value is given as 35.8%, the “Base-Corrected Retinal Vascular Diameter Change Rate (%) 2 Hours After Administration” value came out at 35.4%, the “Base-Corrected Retinal Vascular Diameter Change Rate (%) 6 Hours After Administration” value came out at 22.3% and the “Base-Corrected Retinal Vascular Diameter Change Rate (%) 24 Hours After Administration” value amounted to 2.9%. Also, in the test with retinal blood vessels (0.00311% (w/v) (31.1 μg/mL)), the “Base-Corrected Retinal Vascular Diameter Change Rate (%) 1 Hour After Administration” value is listed as 81.2%, the “Base-Corrected Retinal Vascular Diameter Change Rate (%) 2 Hours After Administration” value was found to be 71.9%, the “Base-Corrected Retinal Vascular Diameter Change Rate (%) 6 Hours After Administration” value was 88.1% and the “Base-Corrected Retinal Vascular Diameter Change Rate (%) 24 Hours After Administration” value was 11.8%. Moreover, the “retinal vasodilatory action compared with CP-544326 (in words)” value in the test on retinal blood vessels (at the same concentration, intravitreal, rabbits) is recorded as “significantly stronger retinal vasodilatory action”. In test [1] (0.00311% (w/v) (31.1 μg/mL), 20 μL intravitreal single injection, pigmented rabbits, 1 hour), the “Base-Corrected Optic Nerve Head Tissue Blood Flow Change Rate (%) 1 Hour After Administration” value was determined as 343.6%. In addition, in test [1] (0.00311% (w/v) (31.1 μg/mL), 20 μL intravitreal single injection, pigmented rabbits, 2 hours), the “Base-Corrected Optic Nerve Head Tissue Blood Flow Change Rate (%) 2 Hours After Administration” value turned out to be 327.8%. Moreover, the “blood flow increasing action, optic nerve head (in words)” value in test [1] (intravitreal administration, rabbits) is reported as “significantly strong blood flow increasing action”.
